According to patent publication US20030236294A1, “Compounds and methods for inducing apoptosis in proliferating cells” (priority 2002, published 2003):

Legend:
PC-3 cells = assay: Apoptosis induction in PC-3 cells (T1/2, time for 50% apoptotic death; cell viability / Cell Death Detection ELISA); conditions: for change in potency in apoptosis induction on replacement of —SO2NH2 with —CONH2: carboxamide versus sulfonamide counterpart, FIG. 10A; for T½ (h) 50 μM: time required for eliciting 50% apoptotic death; for classification as fast-acting or slow-acting apoptosis inducer: prostate cancer cells, FIG. 8
Experimental: Induction of apoptosis was also assessed by using a “Cell Death Detection ELISA” assay (Boehringer-Mannheim) following the manufacturer's instructions. This test is based on the quantitative determination of cytoplasmic histone-associated DNA fragments in the form of mono- and oligonucleosomes after induced apoptotic death. […] Both floating and adherent cells were collected, and cell lysates equivalent to 10^4 cells were used for the ELISA analysis.
Induction of apoptosis was also assessed by using a “Cell Death Detection ELISA” assay (Boehringer-Mannheim) by following the manufacturer's instructions. This test is based on the quantitative determination of cytoplasmic histone-associated DNA fragments in the form of mono- and oligonucleosomes after induced apoptotic death. […] Both floating and adherent cells were collected, and cell lysates equivalent to 10^4 cells were used in the ELISA.
Both adherent and floating cells were combined for the assessment of cell viability. Cell viability was determined by trypan blue exclusion.

DU-145 cells = assay: Apoptosis induction in DU-145 cells; format: cell-based, human; conditions: DU-145 (p53−/−), compared with PC-3; data not shown
LNCaP cells = assay: Apoptosis induction in LNCaP cells; format: cell-based, human; conditions: LNCaP (p53+/+), compared with PC-3; data not shown
[1] = tested on: Akt and ERK2 phosphorylation in PC-3 cells; assay: Western blot of Akt and ERK2 phosphorylation status; format: cell-based, human
Experimental: Immunoblotting For western blot analysis, cells were washed in phosphate-buffered saline (PBS), resuspended in sodium dodecyl sulfate (SDS) gel-loading buffer consisting of 50 mM Tris-HCl, pH 6.8, 100 mM dithiothreitol, 2% SDS, 0.1% bromophenol blue, and 10% glycerol, sonicated with an ultrasonic sonicator for 5 seconds (Virsonic 300, 4.5 output), and boiled for 5 minutes. After a brief centrifugation, equivalent protein amounts (60-100 μg) from the soluble fractions were resolved in 10% SDS-polyacrylamide gels on a Minigel apparatus and transferred to a nitrocellulose membrane in a semidry transfer cell. The transblotted membrane was washed twice with Tris-buffered saline (TBS) containing 0.05% Tween 20 (TBST). After blocking with TBS containing 5% nonfat milk for 60 minutes, the membrane was incubated with the appropriate primary antibody (anti-COX-2, anti-Akt, anti-P-^473Ser Akt, anti-ERK, and anti-phospho-ERK antibodies diluted 1:1,000; anti-actin monoclonal antibody, diluted 1:5,000) in TBS-1% nonfat milk at 4° C. for 12 hours and washed twice with TBST. The membranes were probed with goat anti-rabbit IgG-horseradish peroxidase conjugates (diluted 1:5,000) for 1 hour at room temperature and washed twice with TBST. Bands were visualized by enhanced chemiluminescence.
Immunoblotting. […]

COX-2 = target: T1, COX-2 (Homo sapiens, UniProt P35354); conditions: Table 1; read-out: IC50 (μM), COX-2 inhibition; cited from earlier work
T1 sequence (P35354 18-604): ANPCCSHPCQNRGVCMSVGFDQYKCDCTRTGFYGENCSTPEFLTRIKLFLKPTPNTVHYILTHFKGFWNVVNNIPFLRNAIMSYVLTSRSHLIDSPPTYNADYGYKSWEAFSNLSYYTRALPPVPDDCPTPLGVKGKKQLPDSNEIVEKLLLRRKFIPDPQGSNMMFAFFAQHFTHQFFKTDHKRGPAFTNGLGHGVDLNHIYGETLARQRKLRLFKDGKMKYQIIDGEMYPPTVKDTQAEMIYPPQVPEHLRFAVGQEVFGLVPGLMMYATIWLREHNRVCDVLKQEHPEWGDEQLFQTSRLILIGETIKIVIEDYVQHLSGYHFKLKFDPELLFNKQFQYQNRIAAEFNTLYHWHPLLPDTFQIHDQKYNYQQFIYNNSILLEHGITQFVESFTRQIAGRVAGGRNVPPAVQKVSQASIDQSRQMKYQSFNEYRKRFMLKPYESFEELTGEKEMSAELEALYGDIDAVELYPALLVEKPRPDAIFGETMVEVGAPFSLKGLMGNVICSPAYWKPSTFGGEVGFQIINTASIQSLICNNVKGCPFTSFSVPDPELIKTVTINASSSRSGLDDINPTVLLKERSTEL

PGE2 production = assay: Prostaglandin E2 (PGE2) immunoassay; format: cell-based, human; conditions: 50 μM; 1F2, 3D9, 7D9 cells and parental PC-3 cells; data not shown
Experimental: Culture medium was changed, and 24 hours later conditioned medium was collected to assay PGE2. Conditioned medium was centrifuged to remove particulate material, and then cells were collected by scraping to determine the protein concentration. PGE2 was assayed in 100 μL medium in triplicate according to the manufacturer's instruction (R&D Systems, Inc.; Minneapolis, Minn.). PGE2 data were normalized to protein content.

## 4-[5-(2,4-Dichlorophenyl)-3-(trifluoromethyl)-1H-pyrazol-1-yl]benzene-carboxyamide [Compound 31b]
PC-3 cells
  change in potency in apoptosis induction on replacement of —SO2NH2 with —CONH2: no appreciable change

## 4-[5-(2,4-Dimethylphenyl)-3-(trifluoromethyl)-1H-pyrazol-1-yl]benzene-carboxyamide [Compound 37b]
PC-3 cells
  change in potency in apoptosis induction on replacement of —SO2NH2 with —CONH2: no appreciable change

## 4-[5-(2,5-Dichlorophenyl)-3-(trifluoromethyl)-1H-pyrazol-1-yl]benzene-carboxyamide [Compound 32b]
PC-3 cells
  change in potency in apoptosis induction on replacement of —SO2NH2 with —CONH2: no appreciable change

## 4-[5-(3,4-Dichlorophenyl)-3-(trifluoromethyl)-1H-pyrazol-1-yl]benzene-carboxyamide [Compound 33b]
PC-3 cells
  change in potency in apoptosis induction on replacement of —SO2NH2 with —CONH2: no appreciable change

## NS(=O)(=O)c1ccc(-n2nc(C(F)(F)F)cc2-c2ccc(Cl)cc2)cc1 [1a, 4-[5-(4-Chlorophenyl)-3-(trifluoromethyl)-1H-pyrazol-1-yl]benzenesulfonamide]
DU-145 cells
  susceptibility to apoptosis induction: susceptibility identical to that of PC-3 cells
LNCaP cells
  susceptibility to apoptosis induction: susceptibility identical to that of PC-3 cells
[1]; PC-3 cells
  phosphorylation status of Akt and ERK2: concurrent dephosphorylation of Akt and ERK2

## Cc1ccc(F)cc1F [Compound 4b]
PC-3 cells; 50 μM, Table 2
  T½ (h) 50 μM: >100 h

## Fc1ccc(F)cc1 [Compound 5b]
PC-3 cells; 50 μM, Table 2
  T½ (h) 50 μM: >100 h

## Cc1ccc(C#N)cc1 [Compound 16b]
PC-3 cells; 50 μM, Table 2
  T½ (h) 50 μM: >100 h

## Cc1ccc(C)c(C)c1 [Compound 21b]
PC-3 cells; 50 μM, Table 2
  T½ (h) 50 μM: 2 h

## COc1ccc(C)c(OC)c1 [Compound 22b]
PC-3 cells; 50 μM, Table 2
  T½ (h) 50 μM: >100 h

## COc1ccc(OC)c(C)c1 [Compound 23b]
PC-3 cells; 50 μM, Table 2
  T½ (h) 50 μM: >100 h

## Cc1ccco1 [Compound 26b]
PC-3 cells; 50 μM, Table 2
  T½ (h) 50 μM: >100 h

## Cc1cccs1 [Compound 27b]
PC-3 cells; 50 μM, Table 2
  T½ (h) 50 μM: >100 h

## Cc1cc(Cl)sc1Cl [Compound 29b]
PC-3 cells; 50 μM, Table 2
  T½ (h) 50 μM: >100 h

## Cc1ccc(-c2ccnn2-c2ccc(S(N)(=O)=O)cc2)cc1 [Compound 40b]
PC-3 cells; PC-3 cells
  activity in eliciting apoptosis in PC-3 cells (in words): loss of high potency

## CS(=O)(=O)c1ccc(C2=C(c3ccccc3)COC2=O)cc1 [Compound 47b, 3-(4′-methylsulfonylphenyl)-4-phenyl-2(5H)-furanone]
PC-3 cells; PC-3 cells
  activity in eliciting apoptosis in PC-3 cells (in words): poor activity

## NS(=O)(=O)c1ccc(C2=C(c3ccc(Cl)c(Cl)c3)COC2=O)cc1 [Compound 49b, 3-(4-sulfamoylphenyl)-4-(3′,4′-dichlorophenyl)-2(5H)-furanone]
PC-3 cells; 50 μM, PC-3 cells
  T1/2 at 50 μM: 15 h

## NS(=O)(=O)c1ccc(-n2nc(C(F)(F)F)cc2-c2cc(Cl)ccc2Cl)cc1 [Example 5]
PC-3 cells; 50 μM, Table 1
  T½ (h) 50 μM: 3 h

## Cc1ccc(C)c(-c2cc(C(F)(F)F)nn2-c2ccc(S(N)(=O)=O)cc2)c1 [Example 7]
PC-3 cells; 50 μM, Table 1
  T½ (h) 50 μM: 1 h
COX-2
  IC50: > 100 µM

## Cc1ccc(-c2cc(C(F)(F)F)nn2-c2ccc(S(N)(=O)=O)cc2)c(C)c1 [Example 9]
PC-3 cells; 50 μM, Table 1
  T½ (h) 50 μM: 2 h

## NS(=O)(=O)c1ccc(-n2nc(C(F)(F)F)cc2-c2ccc(Cl)cc2Cl)cc1 [Example 12]
PC-3 cells; 50 μM, Table 1
  T½ (h) 50 μM: 2 h

## NS(=O)(=O)c1ccc(-n2nc(C(F)(F)F)cc2-c2ccccc2Cl)cc1 [Example 13]
PC-3 cells; 50 μM, Table 1
  T½ (h) 50 μM: 4 h

## CS(=O)(=O)Nc1ccc([N+](=O)[O-])cc1OC1CCCCC1 [NS398, reference compound]
PC-3 cells
  classification as fast-acting or slow-acting apoptosis inducer: slow-acting apoptosis inducer
PGE2 production
  PGE2 production: reduced to the same extent

## Cc1ccc(-c2cc(C(F)(F)F)nn2-c2ccc(S(N)(=O)=O)cc2)cc1 [celecoxib, 4-[5-(4-methylphenyl)-3-(trifluoromethyl)-1H-pyrazol-1-yl]benzenesulfonamide, reference compound]
PC-3 cells; 50 μM, PC-3 cells
  time to 50% decrease in cell viability: 2 h
PC-3 cells; 50 μM, Table 2
  T½ (h) 50 μM: 2 h
DU-145 cells
  susceptibility to apoptosis induction: susceptibility identical to that of PC-3 cells
LNCaP cells
  susceptibility to apoptosis induction: susceptibility identical to that of PC-3 cells
[1]; all four antisense COX-2 clones
  phosphorylation of Akt and ERK2: decreased phosphorylation of Akt and ERK2

## Cc1ccc(C)c(-c2cc(C(F)(F)F)nn2-c2ccc(S(N)(=O)=O)cc2)c1 [compound 7a, 4-[5-(2,5-dimethylphenyl)-3-(trifluoromethyl)-1H-pyrazol-1-yl]benzenesulfonamide]
PC-3 cells; 50 μM, PC-3 cells
  time to 50% decrease in cell viability: within an hour

## CS(=O)(=O)c1ccc(C2=C(c3ccccc3)C(=O)OC2)cc1 [rofecoxib, reference compound]
PC-3 cells
  classification as fast-acting or slow-acting apoptosis inducer: slow-acting apoptosis inducer
PGE2 production
  PGE2 production: reduced to the same extent
